Test system: survivin
Test: Survivin ELISA assay on normal human keratinocyte cultures, related to total proteins (BCA)
Assay type: cell-based
Details: forskolin 4 μg/ml (10 μM)
Experimental: The normal human keratinocytes are cultured in 75 cm^2 flasks, in an incubator at 37° C. under a humid atmosphere containing 5% CO2, in serum-free keratinocyte medium supplemented with EGF (Epidermal Growth Factor) and with BPE (Bovine Pituitary Extract) (KSFMc) (Gibco ref: 17005-034+37000-015). The cells are seeded (day D0) into 48-well microplates in a proportion of 50 000 cells in 500 μL of medium per well. After incubation for 24 hours (day D1), the cells have become adherent and the treatment step is then carried out. The seeding medium is removed and the treatment medium containing the ingredients to be evaluated at the various concentrations, or the excipient thereof (for example DMSO) in the same proportion, is then added to each culture well. A peak of survivin expression by the cells is observed after treatment for 16 hours. The wells are then rinsed with PBS. Half the wells of the microplate are used to lyse the keratinocytes and to assay the intracellular survivin. […] The total proteins are assayed using a BCA colorimetric test (reference: BC Assay Kit, Uptima Interchim), by measuring absorbance at 570 nm. […] After the enzyme reaction has been blocked with sulfuric acid, the survivin is quantified by measuring absorbance at 450 nm.

For `C=C[C@@]1(C)CC(=O)[C@]2(O)[C@@]3(C)[C@@H](O)CCC(C)(C)[C@@H]3[C@H](O)[C@H](OC(C)=O)[C@@]2(C)O1` [Forskolin, forskolin], the “% activation” value (16 h, solvent control = 100%) was 147.9% and the Survivin (16 h treatment, normal human keratinocytes) was 7.27 pg/mg proteins.

Source: patent US20100040706A1, “METHOD OF ANTI-AGEING COSMETIC CARE BY STIMULATION OF SURVIVIN EXPRESSION” (LVMH RECHERCHE, priority 2008, published 2010)
